Laboratory results reported in US12139556B2, “Insect neuropeptides 6” (Solasta Bio Limited, priority 2022, dated 2024).

Columns and labels:
Type in all cases: in vivo
[1] = test system: Myzus persicae; test: Field trials by third-party organisations
Experimental: (§1) Field trials for peptide SB-P-65, unformulated, against various insects were conducted by third-party organisations PGRO and AgriScience.

[2] = test system: bees; test: Bee oral toxicity test adapted from OECD Test No. 247 (Bumblebee, Acute Oral Toxicity Test); conditions: % survival after 96 hours of application; FIG. 10
Experimental: Bee oral testing protocol was carried out adapted from OECD Test No. 247: Bumblebee, Acute Oral Toxicity Test. The toxicity of SB-P-65 was compared with a negative control of sucrose or vehicle, and with a current commercial insecticide Imidacloprid.

[3] = test system: Myzus persicae; test: Leaf dip assay (IRAC susceptibility test method 019), mortality assessment; conditions: unformulated or with Silwet-408 adjuvant; mortality assessed at 72, 96 and 120 hours; FIGS. 6-8
Experimental: The assay was carried out based on IRAC susceptibility test method 019 (irac-online.org/methods/aphids-adultnymphs/).
Fill a small 4 cm wide 3 cm high dish with a 1% agar treatment solution of the active chemical or control (ensuring 1 cm gap between the agar and the lid) and leave to set. Dip a 2.5 cm leaf disc into 3 ml of treatment solution allowing the treatment to coat the leaf. Leave the disc to dry for 1 hour and place onto the set agar. Place insects (M. persicae aphids) onto each of the leaf discs. Each unit is sealed with a close-fitting, ventilated lid. Place the agar dishes in a small plastic tray lined with moist tissue paper and ensure the water trays in the bottom of the incubator are filled with clean water and place within the incubator. An assessment of mortality is made at 72, 96 and 120 hours. Leaf dip assays were performed with SB-P-65, and compared to a negative control vehicle and a current commercial insecticide Spirotetramat. The activity of SB-P-65 is shown in FIGS. 6-8; SB-P-65 has good activity whilst being eco-friendly and targeted to specific pests unlike broad spectrum chemical insecticides such as Spirotetramat.

[4] = test system: Aphis fabae; test: Field trials (PGRO) on vining peas, naturally infested
Experimental: as §1

[5] = test system: Aphis gossypii; test: Field trials (AgriScience) on cotton and melon, naturally infested
Experimental: as §1

[6] = versus Stealth/Aphox, Teppeki/Aphox, Profil Extra, Hallmark Zeon

For CC(C)[C@H](NC(=O)[C@@H](NC(=O)[C@H](CCCCN)NC(=O)[C@H](CCC(N)=O)NC(=O)[C@@H](N)CCCNC(=N)N)[C@@H](C)O)C(=O)N[C@@H](Cc1ccccc1)C(=O)N[C@@H](CO)C(=O)N[C@@H](CO)C(=O)N[C@@H](Cc1c[nH]c2ccccc12)C(=O)NCC(N)=O [SB-P-65, [Hy]-RQKTVFSSWG-[NH2]], the “efficacy in field trials against Myzus persicae” value ([1]; unformulated, real-world conditions) was “good efficacy”, the “efficacy relative to commercial insecticides, Myzus persicae field trials” value [1, 6] was “comparably to commercial insecticides” and the “toxicity to bees (oral), compared to Imidacloprid” value [2] was “far lower toxicity”. For the same compound, the “activity against Myzus persicae (mortality) in leaf dip assay” value [3] was “good activity”, the “efficacy in field trials against Aphis fabae” value ([4]; unformulated, vining peas, real-world conditions, FIGS. 11, 14) was “good efficacy” and the “efficacy relative to commercial insecticides, Aphis fabae field trials” value [4, 6] was “comparably to commercial insecticides”. For the same compound, the “efficacy in field trials against Aphis gossypii” value ([5]; unformulated, cotton, melon, real-world conditions, FIGS. 12, 13) was “good efficacy” and the “efficacy relative to commercial insecticides, Aphis gossypii field trials” value [5, 6] was “comparably to commercial insecticides”.
